Data from patent US7781468B2, “Tyrosine derivatives substituted by N-arylacryloyl as agonists of hPPAR alpha and/or hPPAR gamma” (Beijing Molecule Science Technology Co., Ltd., priority 2004, dated 2010).

Assays:
Human PPARα = target: T1, Human PPARα (Homo sapiens, UniProt Q07869); experiment: Activity assay on activating human PPARα (GAL4 chimeric receptor luciferase reporter, transient transfection in 293-T cells); type: cell-based; settings: for Photon number (×10^4) / Increased multiple vs control: compound 10 μM; for Photon number (×10^4): luciferase measured 24 h after administration, control 2.1; for Increased multiple vs control: vs 0.2‰ DMSO blank control; for EC50: activation of PPARα
T1 construct: expressed in transfected cells; host or cells: 293-T cells
T1 sequence (Q07869 239-466 limits assumed): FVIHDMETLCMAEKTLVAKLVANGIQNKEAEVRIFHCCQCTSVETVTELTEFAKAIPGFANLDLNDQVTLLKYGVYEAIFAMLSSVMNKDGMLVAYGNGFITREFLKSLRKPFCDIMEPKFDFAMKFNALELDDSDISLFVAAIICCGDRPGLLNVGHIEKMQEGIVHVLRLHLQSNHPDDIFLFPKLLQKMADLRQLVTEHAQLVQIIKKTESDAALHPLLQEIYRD
Description: (§1) The compounds were screened with respect to their functional effect of instantaneous transfection in 293-T cells, so that their capabilities of activating PPAR subtypes were determined. A chimeric receptor system as established in advance was used to compare the influence of receptor subtypes on the transcription activity of same target gene, with Rluc as an internal control to reduce the endogenous influence. Human PPARα and PPARγ ligand-binding domains were fused respectively with yeast transcription factor GAL4 DNA-binding domains, and then linked to expression vector pM of mammal, to thereby construct two plasmids pM-hPPARα/GAL4 and pM-PPARγ/GAL4. GAL4 DNA-binding area was linked to pB4-tk-luc, to thereby construct pB4-RES-tk-luc (a firefly luciferase reporter gene comprising GAL4 DNA-binding site). pRL-CMV-Rluc was used as an internal control to normalize transfection efficiency and endogenous influence.
(§2) 293-T cells were incubated in a 48-well plate at a cell density of 2-4×10^4/well, using a phenol red-free and antibiotic-free 1640 medium containing 10% defatted fetal calf serum (FCS). After culturing for 48 h, the medium was replaced with a phenol red-free and antibiotic-free 1640 medium containing 5% defatted FCS, and then three plasmids pM-hPPAR/GAL4, pB4-RES-tk-luc and pRL-CMV-Rluc pertaining to two subtypes were respectively co-transfected into the 293-T cells. The strength of luciferase was measured at the time of 24 h after administration, with 0.2‰ DMSO as a blank control.

Human PPARγ = target: T2, Human PPARγ (Homo sapiens, UniProt P37231); experiment: Activity assay on activating human PPARγ (GAL4 chimeric receptor luciferase reporter, transient transfection in 293-T cells); type: cell-based; settings: for Photon number (×10^4) / Increased multiple vs control: compound 10 μM; for Photon number (×10^4): luciferase measured 24 h after administration, control 1.4; for Increased multiple vs control: vs 0.2‰ DMSO blank control; for EC50: activation of PPARγ
T2 construct: expressed in transfected cells; host or cells: 293-T cells
T2 sequence (P37231 238-503 limits assumed): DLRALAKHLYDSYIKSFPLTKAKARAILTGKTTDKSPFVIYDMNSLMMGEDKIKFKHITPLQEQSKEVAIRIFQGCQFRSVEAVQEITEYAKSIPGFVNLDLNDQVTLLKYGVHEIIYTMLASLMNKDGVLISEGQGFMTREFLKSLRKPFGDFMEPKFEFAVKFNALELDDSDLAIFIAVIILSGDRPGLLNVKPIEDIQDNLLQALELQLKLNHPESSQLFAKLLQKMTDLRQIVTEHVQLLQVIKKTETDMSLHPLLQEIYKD
Description: as §1, §2

SMILES	melting point [°C]	Photon number (×10^4) (Human PPARα)	Increased multiple vs control (Human PPARα)	Photon number (×10^4) (Human PPARγ)	Increased multiple vs control (Human PPARγ)	EC50 (Human PPARα) [nM]	EC50 (Human PPARγ) [nM]
Cc1oc(-c2ccccc2)nc1CCOc1ccc(C[C@H](NC(=O)C=Cc2ccc(F)cc2)C(=O)O)cc1 [Example 3, (2S)-2-(3-(4-fluorophenyl)acryloylamino)-3-{4-[2-(5-methyl-2-phenyl-1,3-oxazol-4-yl)-ethoxy]-phenyl}-propanoic acid]	188 to 190						
Cc1oc(-c2ccccc2)nc1CCOc1ccc(C[C@H](NC(=O)C=Cc2ccc(F)c(F)c2)C(=O)O)cc1 [Example 7, (2S)-2-[3-(3,4-difluorophenyl)acryloylamino]-3-{4-[2-(5-methyl-2-phenyl-1,3-oxazol-4-yl)-ethoxy]-phenyl}-propanoic acid]		8.6 ×10^4	4.1	29.0 ×10^4	20.7		

Continued, values first:

melting point [°C]	Photon number (×10^4) (Human PPARα)	Increased multiple vs control (Human PPARα)	Photon number (×10^4) (Human PPARγ)	Increased multiple vs control (Human PPARγ)	EC50 (Human PPARα) [nM]	EC50 (Human PPARγ) [nM]	SMILES
	18.8 ×10^4	8.9	27.6 ×10^4	19.7	4970	1160	Cc1oc(-c2ccccc2)nc1CCOc1ccc(C[C@H](NC(=O)C=Cc2ccc(F)cc2F)C(=O)O)cc1 [Example 8, (2S)-2-[3-(2,4-difluorophenyl)-acryloylamino]-3-{4-[2-(5-methyl-2-phenyl-1,3-oxazol-4-yl)-ethoxy]-phenyl}-propanoic acid]
199 to 201	9.8 ×10^4	4.7	23.7 ×10^4	16.9	770	74	Cc1oc(-c2ccccc2)nc1CCOc1ccc(C[C@H](NC(=O)C=Cc2ccco2)C(=O)O)cc1 [Example 9, (2S)-2-(3-(furan-2-yl)-acryloylamino)-3-{4-[2-(5-methyl-2-phenyl-1,3-oxazol-4-yl)-ethoxy]-phenyl}-propanoic acid]
			24.1 ×10^4	17.2			Cc1ccc(C=CC(=O)N[C@@H](Cc2ccc(OCCc3nc(-c4ccccc4)oc3C)c(Br)c2)C(=O)O)cc1 [Example 10, (2S)-3-{3-bromo-4-[2-(5-methyl-2-phenyl-1,3-oxazol-4-yl)-ethoxy]-phenyl}-2-(3-p-tolylacryloylamino)-propanoic acid]
221 to 223							Cc1oc(-c2ccccc2)nc1CCOc1ccc(C[C@H](NC(=O)C=Cc2ccc(F)cc2F)C(=O)O)cc1Br [Example 12, (2S)-3-{3-bromo-4-[2-(5-methyl-2-phenyl-1,3-oxazol-4-yl)-ethoxy]-phenyl}-2-(3-(2,4-difluorophenyl)-acryloylamino)-propanoic acid]
